“And” between values parts separate entries of the source, which are not always exact repeats. Equal values may be shown once.
Tested on: collagen-induced arthritis
Test: Collagen-induced arthritis (CIA) model: clinical scores and paw volume; for Animal paw volume percent change (%): reference of the scale not given here; for Average animal paw volume percent change (%): reference of the scale not given here
Type: in vivo, Lewis rats
Settings: for Overall Clinical Score: individual animals 1-8; for Animal paw volume / Animal paw volume percent change (%): individual animals
[1] = Day 15, CIA + Compound A 3 mg/kg
[2] = Day 15, CIA + Compound A 10 mg/kg
[3] = Day 18, L paw, group 5 CIA + Compound A 1 mg/kg
[4] = Day 18, L paw, group 6 CIA + Compound A 3 mg/kg
[5] = Day 18, L paw, group 7 CIA + Compound A 10 mg/kg
[6] = Day 18, R paw, group 5 CIA + Compound A 1 mg/kg
[7] = Day 18, R paw, group 6 CIA + Compound A 3 mg/kg
[8] = Day 18, R paw, group 7 CIA + Compound A 10 mg/kg
[9] = Day 18, CIA + Compound A 1 mg/kg
[10] = Day 18, CIA + Compound A 3 mg/kg
[11] = Day 18, CIA + Compound A 10 mg/kg
[12] = Day 19, L paw, group 5 CIA + Compound A 1 mg/kg
[13] = Day 19, L paw, group 6 CIA + Compound A 3 mg/kg
[14] = Day 19, L paw, group 7 CIA + Compound A 10 mg/kg
[15] = Day 19, R paw, group 5 CIA + Compound A 1 mg/kg
[16] = Day 19, R paw, group 6 CIA + Compound A 3 mg/kg
[17] = Day 19, R paw, group 7 CIA + Compound A 10 mg/kg
[18] = Day 19, CIA + Compound A 1 mg/kg
[19] = Day 19, CIA + Compound A 3 mg/kg
[20] = Day 21, L paw, group 5 CIA + Compound A 1 mg/kg
[21] = Day 21, L paw, group 6 CIA + Compound A 3 mg/kg
[22] = Day 21, L paw, group 7 CIA + Compound A 10 mg/kg
[23] = Day 21, R paw, group 5 CIA + Compound A 1 mg/kg

Cn1cc(-c2ccccc2)c(-c2cn(C)c(=O)c3[nH]c(-c4cnn(C(F)(F)F)c4)cc23)cc1=O [Compound A, 6-methyl-4-(1-methyl-2-oxo-5-phenyl-1,2-dihydropyridin-4-yl)-2-(1-(trifluoromethyl)-1H-pyrazol-4-yl)-1,6-dihydro-7H-pyrrolo[2,3-c]pyridin-7-one]
Average detailed clinical score, score [1]: 1
Average overall clinical score [1]: 1
Overall Clinical Score (Day 15, CIA + Compound A 3 mg/kg, 3 mg/kg): 0 (2×) and 1
Average detailed clinical score, left forelimb [2]: 0
Average detailed clinical score, left hind limb [2]: 0.75
Average detailed clinical score, right forelimb [2]: 0
Average detailed clinical score, right hind limb [2]: 0.5
Average detailed clinical score, score [2]: 1.25
Average overall clinical score [2]: 1
Animal paw volume (Day 15, L paw, Group 5 (CIA + Compound A 1 mg/kg), 1 mg/kg): 1.45 mL and 1.84 mL and 1.77 mL and 1.64 mL and 1.48 mL and 1.66 mL and 1.92 mL
Animal paw volume (Day 15, L paw, Group 6 (CIA + Compound A 3 mg/kg), 3 mg/kg): 1.49 mL (2×) and 1.59 mL and 1.48 mL and 1.54 mL and 1.68 mL
Animal paw volume (Day 15, R paw, Group 5 (CIA + Compound A 1 mg/kg), 1 mg/kg): 1.42 mL and 1.81 mL and 1.56 mL and 1.65 mL and 1.50 mL and 1.72 mL and 1.59 mL
Animal paw volume (Day 15, R paw, Group 6 (CIA + Compound A 3 mg/kg), 3 mg/kg): 1.39 mL and 1.41 mL and 1.46 mL and 1.42 mL and 1.75 mL and 1.57 mL
Average animal paw volume [3]: 1.98 mL
Average animal paw volume percent change (%) [3]: 49.46%
Average animal paw volume [4]: 1.64 mL
Average animal paw volume percent change (%) [4]: 24.36%
Average animal paw volume [5]: 1.61 mL
Average animal paw volume percent change (%) [5]: 22.68%
Animal paw volume percent change (%) (Day 18, L paw, group 5 CIA + Compound A 1 mg/kg, 1 mg/kg): 55.17% and 87.60% and 51.66% and 66.42% and 24.72% and 52.08% and 52.83%
Animal paw volume percent change (%) (Day 18, L paw, group 6 CIA + Compound A 3 mg/kg, 3 mg/kg): 29.66% and 54.47% and 6.08% and 10.26% and 18.39% and 23.97%
Average animal paw volume [6]: 1.91 mL
Average animal paw volume percent change (%) [6]: 44.06%
Average animal paw volume [7]: 1.78 mL
Average animal paw volume percent change (%) [7]: 35.37%
Average animal paw volume [8]: 1.76 mL
Average animal paw volume percent change (%) [8]: 34.04%
Animal paw volume percent change (%) (Day 18, R paw, group 5 CIA + Compound A 1 mg/kg, 1 mg/kg): 59.00% and 89.96% and 33.45% and 53.58% and 18.45% and 55.13% and 36.98%
Animal paw volume percent change (%) (Day 18, R paw, group 6 CIA + Compound A 3 mg/kg, 3 mg/kg): 61.13% and 22.57% and 44.15% and 30.48% and 50.58% and 23.22%
Average detailed clinical score, left forelimb [9]: 0.50
Average detailed clinical score, left hind limb [9]: 3.88
Average detailed clinical score, right forelimb [9]: 0.50
Average detailed clinical score, right hind limb [9]: 3.88
Average detailed clinical score, score [9]: 8.75
Average overall clinical score [9]: 4
Overall Clinical Score (Day 18, CIA + Compound A 1 mg/kg, 1 mg/kg): 0 and 5 (3×) and 7 and 6 and 2 and 4
Average detailed clinical score, left forelimb [10]: 0.00
Average detailed clinical score, left hind limb [10]: 2.50
Average detailed clinical score, right forelimb [10]: 0.88
Average detailed clinical score, right hind limb [10]: 2.25
Average detailed clinical score, score [10]: 5.63
Average overall clinical score [10]: 3
Overall Clinical Score (Day 18, CIA + Compound A 3 mg/kg, 3 mg/kg): 4 and 3 and 2
Average detailed clinical score, left forelimb [11]: 0.00
Average detailed clinical score, left hind limb [11]: 1.13
Average detailed clinical score, right forelimb [11]: 0.00
Average overall clinical score [11]: 3
Animal paw volume (Day 18, L paw, Group 5 (CIA + Compound A 1 mg/kg), 1 mg/kg): 2.03 mL (2×) and 2.42 mL and 2.06 mL and 2.21 mL and 1.67 mL and 2.02 mL
Animal paw volume (Day 18, L paw, Group 6 (CIA + Compound A 3 mg/kg), 3 mg/kg): 1.71 mL and 1.99 mL and 1.40 mL and 1.51 mL and 1.55 mL and 1.66 mL
Animal paw volume (Day 18, R paw, Group 5 (CIA + Compound A 1 mg/kg), 1 mg/kg): 2.08 mL and 2.46 mL and 1.84 mL and 2.04 mL (2×) and 1.61 mL and 1.82 mL
Animal paw volume (Day 18, R paw, Group 6 (CIA + Compound A 3 mg/kg), 3 mg/kg): 2.14 mL and 1.58 mL and 1.91 mL and 1.76 mL and 1.95 mL and 1.65 mL
Average animal paw volume [12]: 1.97 mL
Average animal paw volume percent change (%) [12]: 49.19%
Average animal paw volume [13]: 1.70 mL
Average animal paw volume percent change (%) [13]: 29.54%
Average animal paw volume [14]: 1.66 mL
Average animal paw volume percent change (%) [14]: 26.62%
Animal paw volume percent change (%) (Day 19, L paw, group 5 CIA + Compound A 1 mg/kg, 1 mg/kg): 55.17% and 87.60% and 49.82% and 69.06% and 22.47% and 52.08% and 53.58%
Animal paw volume percent change (%) (Day 19, L paw, group 6 CIA + Compound A 3 mg/kg, 3 mg/kg): 43.35% and 54.47% and 22.81% and 10.99% and 29.12%
Average animal paw volume [15]: 1.92 mL
Average animal paw volume percent change (%) [15]: 44.50%
Average animal paw volume [16]: 1.78 mL
Average animal paw volume percent change (%) [16]: 35.81%
Average animal paw volume [17]: 1.75 mL
Average animal paw volume percent change (%) [17]: 33.14%
Animal paw volume percent change (%) (Day 19, R paw, group 5 CIA + Compound A 1 mg/kg, 1 mg/kg): 68.20% and 87.26% and 33.45% and 54.34% and 17.71% and 54.75% and 35.85%
Animal paw volume percent change (%) (Day 19, R paw, group 6 CIA + Compound A 3 mg/kg, 3 mg/kg): 61.89% and 25.68% and 43.02% and 29.74% and 52.90%
Average detailed clinical score, left forelimb [18]: 1.13
Average detailed clinical score, left hind limb [18]: 4.00
Average detailed clinical score, right forelimb [18]: 1.00
Average detailed clinical score, right hind limb [18]: 3.75
Average detailed clinical score, score [18]: 9.88
Average overall clinical score [18]: 5
Overall Clinical Score (Day 19, CIA + Compound A 1 mg/kg, 1 mg/kg): 0 and 6 (5×) and 8 and 3
Average detailed clinical score, left forelimb [19]: 0.00
Average detailed clinical score, left hind limb [19]: 2.38
Average detailed clinical score, right forelimb [19]: 1.13
Average detailed clinical score, right hind limb [19]: 2.88
Average detailed clinical score, score [19]: 6.38
Average overall clinical score [19]: 4
Overall Clinical Score (Day 19, CIA + Compound A 3 mg/kg, 3 mg/kg): 5 and 4 (2×)
Average overall clinical score (Day 19, CIA + Compound A 10 mg/kg): 4
Animal paw volume (Day 19, L paw, Group 5 (CIA + Compound A 1 mg/kg), 1 mg/kg): 2.03 mL (2×) and 2.42 mL and 2.24 mL and 1.64 mL and 2.02 mL and 2.04 mL
Animal paw volume (Day 19, L paw, Group 6 (CIA + Compound A 3 mg/kg), 3 mg/kg): 1.89 mL and 1.99 mL and 1.62 mL and 1.52 mL and 1.69 mL
Animal paw volume (Day 19, R paw, Group 5 (CIA + Compound A 1 mg/kg), 1 mg/kg): 2.20 mL and 2.43 mL and 1.84 mL and 2.05 mL and 1.60 mL and 2.04 mL and 1.80 mL
Animal paw volume (Day 19, R paw, Group 6 (CIA + Compound A 3 mg/kg), 3 mg/kg): 2.15 mL and 1.62 mL and 1.90 mL and 1.75 mL and 1.98 mL
Average animal paw volume [20]: 2.01 mL
Average animal paw volume percent change (%) [20]: 52.06%
Average animal paw volume [21]: 1.73 mL
Average animal paw volume percent change (%) [21]: 31.54%
Average animal paw volume [22]: 1.72 mL
Average animal paw volume percent change (%) [22]: 31.20%
Animal paw volume percent change (%) (Day 21, L paw, group 5 CIA + Compound A 1 mg/kg, 1 mg/kg): 56.70% and 89.53% and 53.14% and 70.94% and 22.47% and 56.60% and 61.89%
Animal paw volume percent change (%) (Day 21, L paw, group 6 CIA + Compound A 3 mg/kg, 3 mg/kg): 46.01% and 70.04% and 24.33% and 10.99% and 37.55%
Average animal paw volume [23]: 2.01 mL
Average animal paw volume percent change (%) [23]: 51.46%
Average animal paw volume (Day 21, R paw, group 6 CIA + Compound A 3 mg/kg): 1.82 mL

Source: patent publication US20260217701A1, “SELECTIVE BET INHIBITORS AND USES THEREOF” (Tay Therapeutics Limited, priority 2022, published 2026)
